Patent publication US20260138961A1, “MODULATORS OF MITOCHONDRIAL DNA REPLICATION” (Pretzel Therapeutics, Inc., priority 2022, published 2026)

Molecular target: T1, POLγ W748S + E1143G (Homo sapiens, UniProt P54098, E1143G/W748S)
T1 sequence (P54098 1-1239 W748S/E1143G): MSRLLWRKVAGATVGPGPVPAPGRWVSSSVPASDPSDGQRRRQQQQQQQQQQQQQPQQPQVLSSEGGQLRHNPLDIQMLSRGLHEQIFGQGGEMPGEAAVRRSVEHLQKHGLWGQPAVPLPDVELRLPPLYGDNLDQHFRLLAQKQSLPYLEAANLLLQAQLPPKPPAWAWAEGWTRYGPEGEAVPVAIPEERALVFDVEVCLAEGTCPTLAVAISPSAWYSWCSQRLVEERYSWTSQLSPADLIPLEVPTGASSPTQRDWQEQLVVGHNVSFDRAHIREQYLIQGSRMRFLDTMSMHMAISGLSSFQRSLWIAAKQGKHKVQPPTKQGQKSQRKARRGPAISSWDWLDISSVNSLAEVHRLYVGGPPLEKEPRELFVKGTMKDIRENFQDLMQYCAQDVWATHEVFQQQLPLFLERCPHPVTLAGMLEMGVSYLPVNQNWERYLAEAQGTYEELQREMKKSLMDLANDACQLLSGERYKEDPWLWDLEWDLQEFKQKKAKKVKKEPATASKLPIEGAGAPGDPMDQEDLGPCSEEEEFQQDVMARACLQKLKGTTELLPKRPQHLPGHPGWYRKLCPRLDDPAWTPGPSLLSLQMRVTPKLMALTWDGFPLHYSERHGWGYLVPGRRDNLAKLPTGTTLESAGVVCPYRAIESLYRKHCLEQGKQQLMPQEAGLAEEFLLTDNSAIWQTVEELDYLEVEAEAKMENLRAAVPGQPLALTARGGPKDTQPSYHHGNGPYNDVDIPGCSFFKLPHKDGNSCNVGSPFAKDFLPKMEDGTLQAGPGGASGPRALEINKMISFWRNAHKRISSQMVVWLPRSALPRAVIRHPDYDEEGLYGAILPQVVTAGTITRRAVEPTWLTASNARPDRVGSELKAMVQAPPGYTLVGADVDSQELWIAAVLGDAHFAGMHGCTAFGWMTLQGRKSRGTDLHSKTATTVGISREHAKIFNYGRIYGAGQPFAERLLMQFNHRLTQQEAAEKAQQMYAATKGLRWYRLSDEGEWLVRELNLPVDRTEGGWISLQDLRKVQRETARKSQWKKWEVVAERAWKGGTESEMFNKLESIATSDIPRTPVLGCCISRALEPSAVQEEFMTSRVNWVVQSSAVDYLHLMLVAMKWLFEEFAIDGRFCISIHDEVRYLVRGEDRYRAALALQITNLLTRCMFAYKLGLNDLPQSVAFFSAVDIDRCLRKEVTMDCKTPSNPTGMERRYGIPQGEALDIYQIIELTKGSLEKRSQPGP
T1 sequence (Q9UHN1 1-485 partner): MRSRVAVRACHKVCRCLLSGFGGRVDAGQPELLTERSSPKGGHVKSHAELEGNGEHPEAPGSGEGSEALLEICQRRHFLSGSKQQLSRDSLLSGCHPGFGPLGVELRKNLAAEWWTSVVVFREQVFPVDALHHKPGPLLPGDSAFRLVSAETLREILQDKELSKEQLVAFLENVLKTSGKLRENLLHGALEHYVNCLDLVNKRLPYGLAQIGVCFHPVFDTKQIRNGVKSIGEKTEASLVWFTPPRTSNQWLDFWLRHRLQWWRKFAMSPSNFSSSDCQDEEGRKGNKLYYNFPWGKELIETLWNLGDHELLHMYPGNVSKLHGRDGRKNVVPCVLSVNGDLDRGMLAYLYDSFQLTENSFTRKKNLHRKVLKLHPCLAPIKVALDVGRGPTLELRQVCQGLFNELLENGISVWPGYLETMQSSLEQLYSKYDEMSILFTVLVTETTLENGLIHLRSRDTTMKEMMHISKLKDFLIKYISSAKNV
Experiment: DNA polymerization assay, W748S + E1143G mutant
Assay type: biochemical
Settings: stimulation of polymerase activity, primed M13mp18 ssDNA, 37° C. 2 hours
Protocol: DNA Polymerization Assay to Monitor Effects on Human Wildtype POLγ and Four Disease-Causing Mutant Variants of Human POLγ.
The ability of small molecules to stimulate the polymerase activity of POLγ was analyzed in a quantitative fluorescence SYBR Green I assay with fluorescence intensity (FI) readout.
In the presence of dNTPs, wild type human POLγ and mutant derivatives thereof were incubated with single-stranded, circular M13mp18 ssDNA hybridized to a short DNA oligonucleotide that functions as a primer for initiation of DNA synthesis. POLγ and mutant derivatives thereof will extend the primer and use the M13mp18 molecule as a template to synthesize long stretches of double-stranded DNA. SYBR Green I, which is a double-stranded DNA-binding dye, was used to quantify formation of double-stranded DNA in the reaction. When bound to double-stranded DNA, SYBR Green I fluorescence increases by up to 100-fold.
The assay was performed in the 384-well plate format. Upon addition of compounds, changes in double-stranded DNA synthesis activity can be monitored by following effects on fluorescent intensity.
The reactions also contained the accessory POLγB subunit, and the human mitochondrial single-stranded DNA binding protein (mtSSB).
The DNA template mixture used in the assay contained 0.5 nM primed M13 mp18 ssDNA, 400 nM mtSSB, 0.1 mM Tris-HCl (pH 8.0), 0.1 mM dNTP, 10 mM MgCl2, 0.1 mg/mL BSA, 1 mM TCEP solution, and 0.02% Triton X-100. The DNA template mixture for the wild type protein contained either 100 μM dNTP, 1 μM dNTP, or 0.1 μM dNTP, designated in Table 2 as 100 μM, 1 μM, and 0.1 μM, respectfully.
Microplates with compounds (0.1 μL in each well) to be tested in the assay were prepared from 10 mM compound stocks in 100% DMSO, and equal amounts of DMSO without any compound were added to positive and negative control wells.
The protein mixture was dispensed (5 μL into each well) into compound plates and incubated at 37° C. for 15 minutes. After incubation, 5 μL of the DNA template mixture was dispensed into each well. The plates were then incubated at 37° C. for 2 hours.
During incubation, a combined stop buffer and detection reagent solution was prepared. The buffer contained 25 mM EDTA (pH 8.0), 0.02% Triton X-100, and SYBR Green I [Invitrogen] diluted 10,000× (for fluorescent readout). EDTA will stop the enzymatic reaction by chelating magnesium ions.

AC50 [µM] | SMILES
2 | Cc1cc(S(=O)(=O)Nc2csc(C3CCOCC3)n2)c(C)cc1Cl [Example 167, 4-chloro-2,5-dimethyl-N-(2-(tetrahydro-2H-pyran-4-yl)thiazol-4-yl)benzenesulfonamide]
1 | Cc1cc(S(=O)(=O)Nc2csc(-n3cccn3)n2)c(C)cc1Cl [Example 178, N-(2-(1H-pyrazol-1-yl)thiazol-4-yl)-4-chloro-2,5-dimethylbenzenesulfonamide]
0.7 | Cc1cc(S(=O)(=O)Nc2csc(-c3cnn(C)c3)n2)c(C)cc1Cl [Example 183, 4-chloro-2,5-dimethyl-N-(2-(1-methyl-1H-pyrazol-4-yl)thiazol-4-yl)benzenesulfonamide]
> 10 | Cc1cc(S(=O)(=O)Nc2csc(C(=O)N(CC(N)=O)C3CCCCC3)n2)c(C)cc1Cl [Example 179, N-(2-amino-2-oxoethyl)-4-((4-chloro-2,5-dimethylphenyl)sulfonamido)-N-cyclohexylthiazole-2-carboxamide]
21 | Cc1cc(S(=O)(=O)Nc2cccc(C(=O)N3CCC[C@H]3C(C)C)c2)c(C)cc1Cl [Example 67, (S)-4-chloro-N-(3-(2-isopropylpyrrolidine-1-carbonyl)phenyl)-2,5-dimethylbenzenesulfonamide]
0.3 | Cc1cc(S(=O)(=O)Nc2csc(-c3ccncc3)n2)c(C)cc1Cl [Example 176, 4-chloro-2,5-dimethyl-N-(2-(pyridin-4-yl)thiazol-4-yl)benzenesulfonamide]
> 10 | Cc1cc(S(=O)(=O)Nc2cn(C)c(-c3ccccc3)n2)c(C)cc1Cl [Example 170, 4-chloro-2,5-dimethyl-N-(1-methyl-2-phenyl-1H-imidazol-4-yl)benzenesulfonamide]
3 | Cc1cnc(-c2cccc(NS(=O)(=O)c3cc(C)c(Cl)cc3C)c2)s1 [Example 21, 4-chloro-2,5-dimethyl-N-(3-(5-methylthiazol-2-yl)phenyl)benzenesulfonamide]

Further lines, the compound ahead of its results:

SMILES | AC50 [µM]
Cc1cc(S(=O)(=O)Nc2csc(C(=O)N(CC(N)=O)C3CCCC3)n2)c(C)cc1Cl [Example 177, N-(2-amino-2-oxoethyl)-4-((4-chloro-2,5-dimethylphenyl)sulfonamido)-N-cyclopentylthiazole-2-carboxamide] | > 100
Cc1cc(S(=O)(=O)Nc2nc(-c3ccccc3)n(C)n2)c(C)cc1Cl [Example 180, 4-chloro-2,5-dimethyl-N-(1-methyl-5-phenyl-1H-1,2,4-triazol-3-yl)benzenesulfonamide] | > 10
Cc1cc(S(=O)(=O)Nc2cccc(C(=O)N[C@H](C)c3ccccc3)c2)c(C)cc1Cl [Example 48, (R)-3-((4-chloro-2,5-dimethylphenyl)sulfonamido)-N-(1-phenylethyl)benzamide] | 9
Cc1cc(S(=O)(=O)Nc2cccc(-c3cc(C4CC4)[nH]n3)c2)c(C)cc1Cl [Example 64, 4-chloro-N-(3-(5-cyclopropyl-1H-pyrazol-3-yl)phenyl)-2,5-dimethylbenzenesulfonamide] | 4
Cc1cc(S(=O)(=O)Nc2cccc(-c3cc[nH]n3)c2)c(C)cc1Cl [Example 68, N-(3-(1H-pyrazol-3-yl)phenyl)-4-chloro-2,5-dimethylbenzenesulfonamide] | 2
Cc1cc(S(=O)(=O)Nc2csc(C(=O)N3CCC[C@H]3C)n2)c(C)cc1Cl [Example 174, (R)-4-chloro-2,5-dimethyl-N-(2-(2-methylpyrrolidine-1-carbonyl)thiazol-4-yl)benzenesulfonamide] | 0.7
Cc1cc(S(=O)(=O)Nc2cc(-c3nccs3)ccc2F)c(C)cc1Cl [Example 61, 4-chloro-N-(2-fluoro-5-(thiazol-2-yl)phenyl)-2,5-dimethylbenzenesulfonamide] | 0.7
Cc1csc(-c2cccc(NS(=O)(=O)c3cc(C)c(Cl)cc3C)c2)n1 [Example 20, 4-chloro-2,5-dimethyl-N-(3-(4-methylthiazol-2-yl)phenyl)benzenesulfonamide] | 2
Cc1cc(S(=O)(=O)Nc2ccc(F)c(-c3nccs3)c2)c(C)cc1Cl [Example 63, 4-chloro-N-(4-fluoro-3-(thiazol-2-yl)phenyl)-2,5-dimethylbenzenesulfonamide] | > 100
Cc1cc(S(=O)(=O)N(C)c2cccc(-c3nccs3)c2)c(C)cc1Cl [Example 22, 4-chloro-N,2,5-trimethyl-N-(3-(thiazol-2-yl)phenyl)benzenesulfonamide] | > 100
Cc1cc(S(=O)(=O)Nc2cn(-c3ccccc3)cn2)c(C)cc1Cl [Example 169, 4-chloro-2,5-dimethyl-N-(1-phenyl-1H-imidazol-4-yl)benzenesulfonamide] | > 100
Cc1cc(-c2cccc(NS(=O)(=O)c3cc(C)c(Cl)cc3C)c2)n[nH]1 [Example 66, 4-chloro-2,5-dimethyl-N-(3-(5-methyl-1H-pyrazol-3-yl)phenyl)benzenesulfonamide] | 5
Cc1cc(S(=O)(=O)Nc2cn(Cc3ccccc3)cn2)c(C)cc1Cl [Example 168, N-(1-benzyl-1H-imidazol-4-yl)-4-chloro-2,5-dimethylbenzenesulfonamide] | > 100
CC[C@@H]1CCCN1C(=O)c1cccc(NS(=O)(=O)c2cc(C)c(Cl)cc2C)c1 [Example 65, (R)-4-chloro-N-(3-(2-ethylpyrrolidine-1-carbonyl)phenyl)-2,5-dimethylbenzenesulfonamide] | 7
Cc1cc(S(=O)(=O)Nc2cnn(-c3ccccc3)n2)c(C)cc1Cl [Example 171, 4-chloro-2,5-dimethyl-N-(2-phenyl-2H-1,2,3-triazol-4-yl)benzenesulfonamide] | > 10
Cc1cc(S(=O)(=O)Nc2csc(C(=O)N3CCCC3)n2)c(C)cc1Cl [Example 166, 4-chloro-2,5-dimethyl-N-(2-(pyrrolidine-1-carbonyl)thiazol-4-yl)benzenesulfonamide] | 0.4
